Data as given in US10239849B2 (Merck Sharp & Dohme Corp., priority 2015, dated 2019).

Tests used:
[1] = biological target: T1, glutathione-S-transferase (GST) tagged LXRbeta LBD (ligand binding domain) (Homo sapiens, UniProt P55055); assay: LanthaScreen TR-FRET Liver X Receptor Coactivator Assay, LXR beta-LBD; type: biochemical; details: for Emax: efficacy in relation to reference dual agonist T1317, read-out: LXR beta activity at max dose (%) (Emax); for EC50: potency (Inflection Point) of co-activator recruitment, TR-FRET, read-out: LXR beta IP
T1 construct: purchased Invitrogen pv4658.pps
T1 sequence (P55055 222-460 limits assumed): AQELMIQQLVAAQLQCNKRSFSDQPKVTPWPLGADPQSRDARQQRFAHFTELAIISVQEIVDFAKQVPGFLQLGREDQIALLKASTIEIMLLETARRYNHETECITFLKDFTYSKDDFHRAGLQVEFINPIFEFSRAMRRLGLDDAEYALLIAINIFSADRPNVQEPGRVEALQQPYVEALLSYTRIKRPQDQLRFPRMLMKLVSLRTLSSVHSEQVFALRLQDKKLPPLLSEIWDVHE
Outline: (§1)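 Test ligands were combined with the receptor LBD, after which terbium-labelled anti-GST antibody and a fluorescein-tagged coactivator peptide were introduced together. Plates sat at room temperature, then time-resolved FRET was measured.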

[2] = biological target: T2, glutathione-S-transferase (GST) tagged LXRalpha LBD (ligand binding domain) (Homo sapiens, UniProt Q13133); assay: LanthaScreen TR-FRET Liver X Receptor Coactivator Assay, LXR alpha-LBD; type: biochemical; details: for Emax: efficacy in relation to reference dual agonist T1317, read-out: LXR alpha activity at max dose (%) (Emax); for EC50: potency (Inflection Point) of co-activator recruitment, TR-FRET, read-out: LXR alpha IP
T2 construct: purchased Invitrogen pv4655
T2 sequence (Q13133 209-447 limits assumed): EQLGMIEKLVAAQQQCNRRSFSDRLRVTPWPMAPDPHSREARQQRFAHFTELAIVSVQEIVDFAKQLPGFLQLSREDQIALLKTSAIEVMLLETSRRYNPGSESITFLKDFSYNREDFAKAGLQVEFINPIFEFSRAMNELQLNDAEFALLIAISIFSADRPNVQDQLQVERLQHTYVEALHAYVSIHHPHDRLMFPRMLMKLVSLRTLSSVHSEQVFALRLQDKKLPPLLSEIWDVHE
Outline: as §1

Emax [1] [%]	EC50 [1] [nM]	Emax [2] [%]	EC50 [2] [nM]	SMILES
68	676	39	4630	CN(C)C(=O)c1ccc(-c2cnc(N3CCN(C(=O)OC(C)(C)C)CC3)c(C#N)c2)cc1C1CC1 [Example 9-4, tert-butyl 4-{3-cyano-5-[3-cyclopropyl-4-(dimethylcarbamoyl)phenyl]pyridin-2-yl}piperazine-1-carboxylate]
59	62	49	2360	C#Cc1cc(-c2ccc(C(=O)N(C)C)c(Cl)c2)cnc1N1CCN(C(=O)OC(C)(C)C)CC1 [Example 9-5]

Second part, the compound before the results:

SMILES	Emax [1] [%]	EC50 [1] [nM]	Emax [2] [%]	EC50 [2] [nM]
CN(C)C(=O)c1ccc(-c2cnc(N3CCN(C(=O)OC(C)(C)C)CC3)c(Cl)c2)cc1Cl [Example 9-1, tert-butyl 4-(3-chloro-5-(3-chloro-4-(dimethylcarbamoyl)phenyl)pyridin-2-yl)piperazine-1-carboxylate]	61	55	48	1350
C=Cc1cc(-c2ccc(C(=O)N(C)C)c(Cl)c2)cnc1N1CCN(C(=O)OC(C)(C)C)CC1 [Example 9-2, tert-butyl 4-{5-[3-chloro-4-(dimethylcarbamoyl)phenyl]-3-ethenylpyridin-2-yl}piperazine-1-carboxylate]	49	161	38	3440
CN(C)C(=O)c1ccc(-c2cnc(N3CCN(C(=O)OC(C)(C)C)CC3)c(CO)c2)cc1Cl [Example 9-3, tert-butyl 4-{5-[3-chloro-4-(dimethylcarbamoyl)phenyl]-3-(hydroxymethyl)pyridin-2-yl}piperazine-1-carboxylate]	57	730	34	30100
